# Measurements from US8334287B2 (Hoffmann-La Roche Inc., priority 2009, dated 2012).
# Target: T1, human mGlu5a receptor (Homo sapiens, UniProt P41594)
# T1 construct: expressed in transfected cells; host or cells: EBNA cells (transient transfection); membranes prepared from them
# Assay: mGlu5a receptor binding, displacement of [3H]MPEP
# Settings: competing radioligand [3H]MPEP; human mGlu5a receptor transiently transfected into EBNA cells; Ki=IC50/1+L/Kd
# Experimental: For binding experiments, cDNA encoding human mGlu5a receptor was transiently transfected into EBNA cells using a procedure described by E.-J. Schlaeger and K. Christensen (Cytotechnology 1998, 15, 1-13). For functional assays, [Ca^2+]i measurements were performed largely as described previously (Porter et al., Br J. Pharmacol 1999, 128, 13-20) on stably expressed recombinant human mGlu 5a receptors in HEK-293 cells. The cells were dye loaded using Fluo 4-AM (purchased from Molecular Probes, 2 μM final concentration) [Ca^2+]i measurements were performed using a fluorometric imaging plate reader (FLIPR, Molecular Devices Corporation, La Jolla, Calif., USA). Antagonist evaluation was performed following a 5 minute preincubation with the test compounds followed by the addition of a submaximal addition of agonist.
# The inhibition (antagonists) curves were fitted with a four parameter logistic equation giving IC50, and Hill coefficient using the iterative non linear curve fitting software Xcel fit.
# The Ki values of the compounds tested are given. The Ki value is defined by the following formula: Ki=IC50/1+L/Kd in which the IC50 values are those concentrations of the compounds tested in which causes 50% inhibition of the competing radioligand ([^3H]MPEP). [L] is the concentration of radioligand used in the binding experiment and the Kd value of the radioligand is empiracally determined for each batch of membranes prepared.
# T1 sequence (P41594 21-1180 isoform P41594-2 limits assumed): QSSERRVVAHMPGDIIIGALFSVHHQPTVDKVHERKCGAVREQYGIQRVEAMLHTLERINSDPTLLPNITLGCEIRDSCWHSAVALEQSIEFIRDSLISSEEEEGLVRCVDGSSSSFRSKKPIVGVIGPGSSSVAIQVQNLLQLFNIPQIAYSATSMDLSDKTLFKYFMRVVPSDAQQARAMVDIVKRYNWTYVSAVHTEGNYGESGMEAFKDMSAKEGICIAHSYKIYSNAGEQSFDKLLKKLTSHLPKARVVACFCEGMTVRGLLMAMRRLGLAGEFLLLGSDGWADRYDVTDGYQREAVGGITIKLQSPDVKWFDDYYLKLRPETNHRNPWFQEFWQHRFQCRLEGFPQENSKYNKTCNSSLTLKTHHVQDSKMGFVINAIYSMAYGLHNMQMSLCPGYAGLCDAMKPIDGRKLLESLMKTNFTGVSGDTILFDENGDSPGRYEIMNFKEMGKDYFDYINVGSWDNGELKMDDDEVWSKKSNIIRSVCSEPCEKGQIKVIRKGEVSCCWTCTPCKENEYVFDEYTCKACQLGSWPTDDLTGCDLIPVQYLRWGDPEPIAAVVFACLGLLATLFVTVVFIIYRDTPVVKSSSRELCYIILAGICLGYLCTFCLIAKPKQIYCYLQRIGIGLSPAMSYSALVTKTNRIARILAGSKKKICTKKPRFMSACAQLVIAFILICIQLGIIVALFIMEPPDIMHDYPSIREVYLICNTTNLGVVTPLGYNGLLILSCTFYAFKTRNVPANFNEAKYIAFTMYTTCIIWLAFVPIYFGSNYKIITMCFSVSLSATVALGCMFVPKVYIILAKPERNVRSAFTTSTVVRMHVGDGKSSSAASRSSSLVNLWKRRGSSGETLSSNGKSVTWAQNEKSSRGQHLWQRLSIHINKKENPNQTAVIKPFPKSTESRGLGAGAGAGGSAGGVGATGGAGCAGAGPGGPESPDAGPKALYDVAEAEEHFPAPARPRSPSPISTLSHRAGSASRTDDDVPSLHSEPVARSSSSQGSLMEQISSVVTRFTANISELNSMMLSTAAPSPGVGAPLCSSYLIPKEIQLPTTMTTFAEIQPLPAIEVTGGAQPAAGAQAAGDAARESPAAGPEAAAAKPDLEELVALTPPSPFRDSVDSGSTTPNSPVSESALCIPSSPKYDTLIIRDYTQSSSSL
row,Compound,Ki [µM]
1,"Cc1nc(C#Cc2cccc(Cl)c2)cn1-c1cc[nH]c(=O)c1 [Example 1, 4-[4-(3-chloro-phenylethynyl)-2-methyl-imidazol-1-yl]-1H-pyridin-2-one]",0.04
2,"Cc1nc(C#Cc2cccc(Cl)c2)cn1-c1ccn(C)c(=O)c1 [Example 2, 4-[4-(3-chloro-phenylethynyl)-2-methyl-imidazol-1-yl]-1-methyl-1H-pyridin-2-one]",0.069
3,"CCn1ccc(-n2cc(C#Cc3cccc(Cl)c3)nc2C)cc1=O [Example 3, 4-[4-(3-chloro-phenylethynyl)-2-methyl-imidazol-1-yl]-1-ethyl-1H-pyridin-2-one]",0.039
4,"Cc1nc(C#Cc2cccc(Cl)c2)cn1-c1ccn(CCO)c(=O)c1 [Example 4, 4-[4-(3-chloro-phenylethynyl)-2-methyl-imidazol-1-yl]-1-(2-hydroxy-ethyl)-1H-pyridin-2-one]",0.345
5,"COCCn1ccc(-n2cc(C#Cc3cccc(Cl)c3)nc2C)cc1=O [Example 5, 4-[4-(3-chloro-phenylethynyl)-2-methyl-imidazol-1-yl]-1-(2-methoxy-ethyl)-1H-pyridin-2-one]",0.044
6,"Cc1nc(C#Cc2ccnc(Cl)c2)cn1-c1cc[nH]c(=O)c1 [Example 6, 4-[4-(2-chloro-pyridin-4-ylethynyl)-2-methyl-imidazol-1-yl]-1H-pyridin-2-one]",0.146
7,"Cc1nc(C#Cc2ccnc(Cl)c2)cn1-c1ccn(C)c(=O)c1 [Example 7, 4-[4-(2-chloro-pyridin-4-ylethynyl)-2-methyl-imidazol-1-yl]-1-methyl-1H-pyridin-2-one]",0.18
8,"Cc1cccc(C#Cc2cn(-c3cc[nH]c(=O)c3)c(C)n2)c1 [Example 8, 4-(2-Methyl-4-m-tolylethynyl-imidazol-1-yl)-1H-pyridin-2-one]",0.113
9,"Cc1cccc(C#Cc2cn(-c3ccn(C)c(=O)c3)c(C)n2)c1 [Example 9, 1-Methyl-4-(2-methyl-4-m-tolylethynyl-imidazol-1-yl)-1H-pyridin-2-one]",0.042
10,"CCn1ccc(-n2cc(C#Cc3cccc(C)c3)nc2C)cc1=O [Example 10, 1-Ethyl-4-(2-methyl-4-m-tolylethynyl-imidazol-1-yl)-1H-pyridin-2-one]",0.075
11,"Cc1cccc(C#Cc2cn(-c3ccn(CCO)c(=O)c3)c(C)n2)c1 [Example 11, 1-(2-Hydroxy-ethyl)-4-(2-methyl-4-m-tolylethynyl-imidazol-1-yl)-1H-pyridin-2-one]",0.265
12,"COCCn1ccc(-n2cc(C#Cc3cccc(C)c3)nc2C)cc1=O [Example 12, 1-(2-Methoxy-ethyl)-4-(2-methyl-4-m-tolylethynyl-imidazol-1-yl)-1H-pyridin-2-one]",0.04
13,"CCOC(=O)Cn1ccc(-n2cc(C#Cc3cccc(C)c3)nc2C)cc1=O [Example 13, [4-(2-Methyl-4-m-tolylethynyl-imidazol-1-yl)-2-oxo-2H-pyridin-1-yl]-acetic acid ethyl ester]",0.094
14,"Cc1nc(C#Cc2cccc(Cl)c2)cn1-c1cccc(O)n1 [Example 14, 6-[4-(3-chloro-phenylethynyl)-2-methyl-imidazol-1-yl]-pyridin-2-ol]",0.042
15,"Cc1nc(C#Cc2cccc(Cl)c2)cn1-c1cccc(=O)n1C [Example 15, 6-[4-(3-chloro-phenylethynyl)-2-methyl-imidazol-1-yl]-1-methyl-1H-pyridin-2-one]",0.154
16,"Cc1nc(C#Cc2cccc(Cl)c2)cn1-c1cncc(=O)[nH]1 [Example 16, 6-[4-(3-chloro-phenylethynyl)-2-methyl-imidazol-1-yl]-1H-pyrazin-2-one]",0.659
17,"Cc1nc(C#Cc2ccnc(Cl)c2)cn1-c1cccc(O)n1 [Example 17, 6-[4-(2-chloro-pyridin-4-ylethynyl)-2-methyl-imidazol-1-yl]-pyridin-2-ol]",0.144
18,"Cc1nc(C#Cc2ccnc(Cl)c2)cn1-c1cccc(=O)n1C [Example 18, 6-[4-(2-chloro-pyridin-4-ylethynyl)-2-methyl-imidazol-1-yl]-1-methyl-1H-pyridin-2-one]",0.559

# The next lines start with the values.
row,Ki [µM],Compound
1,0.504,"Cc1nc(C#Cc2ccnc(Cl)c2)cn1-c1cncc(=O)[nH]1 [Example 19, 6-[4-(2-chloro-pyridin-4-ylethynyl)-2-methyl-imidazol-1-yl]-1H-pyrazin-2-one]"
2,0.817,"Cc1nc(C#Cc2ccnc(Cl)c2)cn1-c1cncc(=O)n1C [Example 20, 6-[4-(2-chloro-pyridin-4-ylethynyl)-2-methyl-imidazol-1-yl]-1-methyl-1H-pyrazin-2-one]"
3,0.04,"Cc1nc(C#Cc2cccc(Cl)c2)cn1-c1cnn(C)c(=O)c1 [Example 21, 5-[4-(3-chloro-phenylethynyl)-2-methyl-imidazol-1-yl]-2-methyl-2H-pyridazin-3-one]"
4,0.384,"Cc1nc(C#Cc2ccnc(Cl)c2)cn1-c1cnn(C)c(=O)c1 [Example 22, 5-[4-(2-chloro-pyridin-4-ylethynyl)-2-methyl-imidazol-1-yl]-2-methyl-2H-pyridazin-3-one]"
5,0.052,"Cc1cccc(C#Cc2cn(-c3cnn(C)c(=O)c3)c(C)n2)c1 [Example 23, 2-Methyl-5-(2-methyl-4-m-tolylethynyl-imidazol-1-yl)-2H-pyridazin-3-one]"
6,0.277,"Cc1nc(C#Cc2ccnc(Cl)c2)cn1-c1cc(=O)n(C)cn1 [Example 24, 6-[4-(2-chloro-pyridin-4-ylethynyl)-2-methyl-imidazol-1-yl]-3-methyl-3H-pyrimidin-4-one]"
7,0.148,"Cc1nc(C#Cc2cccc(Cl)c2)c(C)n1-c1cc[nH]c(=O)c1 [Example 25, 4-[4-(3-chloro-phenylethynyl)-2,5-dimethyl-imidazol-1-yl]-1H-pyridin-2-one]"
8,0.033,"Cc1nc(C#Cc2cccc(Cl)c2)c(C)n1-c1ccn(C)c(=O)c1 [Example 26, 4-[4-(3-chloro-phenylethynyl)-2,5-dimethyl-imidazol-1-yl]-1-methyl-1H-pyridin-2-one]"
9,0.04,"CCn1ccc(-n2c(C)nc(C#Cc3cccc(Cl)c3)c2C)cc1=O [Example 27, 4-[4-(3-chloro-phenylethynyl)-2,5-dimethyl-imidazol-1-yl]-1-ethyl-1H-pyridin-2-one]"
10,0.222,"Cc1nc(C#Cc2cccc(Cl)c2)c(C)n1-c1ccn(CCO)c(=O)c1 [Example 28, 4-[4-(3-chloro-phenylethynyl)-2,5-dimethyl-imidazol-1-yl]-1-(2-hydroxy-ethyl)-1H-pyridin-2-one]"
11,0.058,"COCCn1ccc(-n2c(C)nc(C#Cc3cccc(Cl)c3)c2C)cc1=O [Example 29, 4-[4-(3-chloro-phenylethynyl)-2,5-dimethyl-imidazol-1-yl]-1-(2-methoxy-ethyl)-1H-pyridin-2-one]"
12,0.211,"Cc1cccc(C#Cc2nc(C)n(-c3cc[nH]c(=O)c3)c2C)c1 [Example 30, 4-(2,5-dimethyl-4-m-tolylethynyl-imidazol-1-yl)-1H-pyridin-2-one]"
13,0.061,"Cc1cccc(C#Cc2nc(C)n(-c3ccn(C)c(=O)c3)c2C)c1 [Example 31, 4-[2,5-dimethyl-4-m-tolylethynyl-imidazol-1-yl]-1-methyl-1H-pyridin-2-one]"
14,0.046,"CCn1ccc(-n2c(C)nc(C#Cc3cccc(C)c3)c2C)cc1=O [Example 32, 4-[2,5-dimethyl-4-m-tolylethynyl-imidazol-1-yl]-1-ethyl-1H-pyridin-2-one]"
15,0.446,"Cc1cccc(C#Cc2nc(C)n(-c3ccn(CCO)c(=O)c3)c2C)c1 [Example 33, 4-[2,5-dimethyl-4-m-tolylethynyl-imidazol-1-yl]-1-(2-hydroxy-ethyl)-1H-pyridin-2-one]"
16,0.087,"COCCn1ccc(-n2c(C)nc(C#Cc3cccc(C)c3)c2C)cc1=O [Example 34, 4-[2,5-dimethyl-4-m-tolylethynyl-imidazol-1-yl]-1-(2-methoxy-ethyl)-1H-pyridin-2-one]"
17,0.347,"Cc1nc(C#Cc2ccnc(Cl)c2)c(C)n1-c1cc[nH]c(=O)c1 [Example 35, 4-[4-(2-chloro-pyridin-4-ylethynyl)-2,5-dimethyl-imidazol-1-yl]-1H-pyridin-2-one]"
18,0.173,"Cc1nc(C#Cc2ccnc(Cl)c2)c(C)n1-c1ccn(C)c(=O)c1 [Example 36, 4-[4-(2-chloro-pyridin-4-ylethynyl)-2,5-dimethyl-imidazol-1-yl]-1-methyl-1H-pyridin-2-one]"
19,0.238,"CCn1ccc(-n2c(C)nc(C#Cc3ccnc(Cl)c3)c2C)cc1=O [Example 37, 4-[4-(2-chloro-pyridin-4-ylethynyl)-2,5-dimethyl-imidazol-1-yl]-1-ethyl-1H-pyridin-2-one]"
20,0.285,"COCCn1ccc(-n2c(C)nc(C#Cc3ccnc(Cl)c3)c2C)cc1=O [Example 39, 4-[4-(2-chloro-pyridin-4-ylethynyl)-2,5-dimethyl-imidazol-1-yl]-1-(2-methoxy-ethyl)-1H-pyridin-2-one]"
21,0.052,"Cc1nc(C#Cc2cccc(F)c2)c(C)n1-c1ccn(C)c(=O)c1 [Example 41, 4-[4-(3-fluoro-phenylethynyl)-2,5-dimethyl-imidazol-1-yl]-1-methyl-1H-pyridin-2-one]"
22,0.038,"Cc1nc(C#Cc2cccc(Cl)c2)c(C)n1-c1cnn(C)c(=O)c1 [Example 42, 5-[4-(3-chloro-phenylethynyl)-2,5-dimethyl-imidazol-1-yl]-2-methyl-2H-pyridazin-3-one]"
